Test results from US10130605B2, “Compositions for use in treating inflammatory bowel diseases and intestinal colitis” (TaiRx Inc., priority 2017, dated 2018).
Entries after “also recorded” stand apart in the source; their conditions may differ.

Tests used:
Format in all cases: in vivo
DSS-induced colitis mice [1] = test: DSS-induced acute colitis in mouse: body weight, colon length, colon weight, general condition; details: for Colon length / Colon weight / Colon-to-BW ratio: colon-to-body weight ratio / BW: body weight on the day of sacrifice: sacrifice day 5; for Colon length / Colon weight / Colon-to-BW ratio: colon-to-body weight ratio: geometric mean ± SEM; for BW: body weight on the day of sacrifice: mean ± SEM, n=8
Protocol: (§1) Induction of acute colitis. Acute colitis was induced by giving mice with 2.5% DSS (MP Biomedicals) in a drinking water for 5 consecutive days. The DSS administration was taken place in two separate days; where the mice were divided into two groups based on their body weight before the day of the DSS administration.
(§2) Route of drug administration.
(§3) Treatment doses. Diacerein was administered at 2 dose levels of 30 and 60 mg/kg, once daily for 5 days.
(§4) Animals. Eight-week-old female C57BL/6 mice were obtained from Japan SLC, Inc. (Japan). All animals used in the study were housed and cared in accordance with the Japanese Pharmacological Society Guidelines for Animal Use.
The average body weight of mice is about 18-22 grams.
The viability, clinical signs and behavior were monitored daily. Body weight was recorded before the treatment. […] Mice were sacrificed by exsanguinations through direct cardiac puncture under isoflurane anesthesia (Pfizer Inc.). Colon length and weight were measured from the end of the cecum to the anus.
(§5) The pharmacological effects of aloe-emodin, emodin, and rhein were also respectively tested using the same protocol described above.

DSS-induced colitis mice [2] = test: DSS-induced acute colitis in mouse: histological analysis of HE-stained colon sections; details: for loss/damage of crypt and epithelium in colon sections vs DSS-induced vehicle group: FIGS. 5B-C, same protocol, dose not given; for loss of crypt and epithelium in HE-stained colon sections vs Vehicle group: FIG. 5A
Protocol: as §1, §2, §3, §4
Histological analyses. For HE staining, sections were cut from paraffin blocks of colon tissue prefixed in 10% neutral buffered formalin (Wako Pure Chemical Industries, Japan) and stained with Lillie-Mayer's Hematoxylin (Muto Pure Chemicals Co., Ltd., Japan) and eosin solution (Wako Pure Chemical Industries). Representative photos of the changes observed were captured from each group.
as §5

DSS-induced colitis mice [3] = test: DSS-induced acute colitis in mouse: disease activity index (DAI) score; details: for DAI: Diacerein 30 and 60 mg/kg; for decrease in fecal blood score than the DSS-induced vehicle group: not statistically significant
Protocol: as §1, §2, §3, §4
Measurement of disease activity index score. A disease activity index (DAI) was calculated daily by summation of the following parameters: • (i) Weight loss (0=no weight loss; 1=1-5% weight loss; 2=6-10% weight loss; 3=11-15% weight loss; and 4=>15% weight loss); • (ii) Occult blood positivity (0=no bleeding; 1=occult blood test (+); 2=occult blood test (++); 3=occult blood test (+++); and 4=gross bleeding from the anus); and • (iii) Stool consistency (0=normal stools; 2=loose stools; 4=diarrhea).
as §5

DSS-induced colitis mice [4] = test: DSS-induced acute colitis in mouse: macroscopic scoring of colon tissue (colonic damage score); details: for colonic damage score / diarrhea score / thickness score / ulceration score: sacrifice day 5
Protocol: as §1, §2, §3, §4
Macroscopic scoring of colon tissue. Colonic damage was scored using the published criteria of measurement (Wallace et al, Gastroenterology, 1992, 102, 18-27). […]

[5] = summary b147-b150, same protocol, dose not given
[6] = summary b148-b149, same protocol, dose not given
[7] = summary b149-b150, same protocol, dose not given
[8] = Diacerein 30 mg/kg PO QD day 0-4
[9] = Diacerein 60 mg/kg PO QD day 0-4
[10] = Mesalazine 20 mg/kg PO QD day 0-4
[11] = Mesalazine 100 mg/kg PO QD day 0-4
[12] = Mesalazine 100 mg/kg, Day 2 and 3
[13] = Mesalazine, dose not given, Day 2 and 3
[14] = both Mesalazine groups (20 and 100 mg/kg), Day 5

SMILES: O=C1c2cccc(O)c2C(=O)c2c(O)cc(CO)cc21 [Aloe-emodin, 1,8-Dihydroxy-3-(hydroxymethyl)anthraquinone]
- colon-to-body weight ratio vs DSS-induced vehicle group (in words) (DSS-induced colitis mice [1]; same protocol, dose not given): significant improvement in the colon-to-body weight ratio
- prevention of the body weight loss by DSS-induction (in words) (DSS-induced colitis mice [1]; same protocol, dose not given): able to prevent the body weight loss
- loss/damage of crypt and epithelium in colon sections vs DSS-induced vehicle group (DSS-induced colitis mice [2]): less loss of crypt and epithelium; also recorded: clearly reduced
- DAI results (in words) (DSS-induced colitis mice [3]; same protocol, dose not given): effective
- body weight score (in words) (DSS-induced colitis mice [3]; [5]): significant effects on reducing the body weight score
- fecal blood score (in words) (DSS-induced colitis mice [3]; [6]): significant effects on reducing the fecal blood score

SMILES: Cc1cc(O)c2c(c1)C(=O)c1cc(O)cc(O)c1C2=O [Emodin, 1,3,8-Trihydroxy-6-methyl-9,10-anthracenedione]
- colon weight vs DSS-induced vehicle group (in words) (DSS-induced colitis mice [1]; same protocol, dose not given): significant improvement in colon weight
- colon-to-body weight ratio vs DSS-induced vehicle group (in words) (DSS-induced colitis mice [1]; same protocol, dose not given): significant reduction in the colon-to-body weight ratio
- prevention of the body weight loss by DSS-induction (in words) (DSS-induced colitis mice [1]; same protocol, dose not given): able to prevent the body weight loss
- DAI results (in words) (DSS-induced colitis mice [3]; same protocol, dose not given): effective
- body weight score (in words) (DSS-induced colitis mice [3]; [5]): significant effects on reducing
- fecal blood score (in words) (DSS-induced colitis mice [3]; [6]): significant effects on reducing
- diarrheal stool score (in words) (DSS-induced colitis mice [3]; [7]): significant effects on reducing

SMILES: CC(=O)Oc1cccc2c1C(=O)c1c(OC(C)=O)cc(C(=O)O)cc1C2=O [Diacerein, 1,8-Diacetoxy-3-carboxyanthraquinone]
- Colon length (DSS-induced colitis mice [1]; [8]): 5.6 ± 0.2 cm
- Colon weight (DSS-induced colitis mice [1]; [8]): 211 ± 10 mg
- Colon-to-BW ratio: colon-to-body weight ratio (DSS-induced colitis mice [1]; [8]): 1.2 ± 0.1%
- BW: body weight on the day of sacrifice (DSS-induced colitis mice [1]; [8]): 17.8 ± 0.1 g
- Colon length (DSS-induced colitis mice [1]; [9]): 5.4 ± 0.3 cm
- Colon weight (DSS-induced colitis mice [1]; [9]): 211 ± 0.1 mg
- Colon-to-BW ratio: colon-to-body weight ratio (DSS-induced colitis mice [1]; [9]): 1.2 ± 0.1%
- BW: body weight on the day of sacrifice (DSS-induced colitis mice [1]; [9]): 17.8 ± 0.3 g
- body weight changes (in words) (DSS-induced colitis mice [1]; Diacerein groups (30 and 60 mg/kg PO QD), 5-day treatment): maintain the body weights close to the Sham animals
- increase in body weight on the day of sacrifice than the DSS-induced vehicle group (DSS-induced colitis mice [1]; both Diacerein groups (30 and 60 mg/kg PO QD), significant): 6.6%
- colonic damage score (DSS-induced colitis mice [4]; [8]): 4.1 ± 0.1
- diarrhea score (DSS-induced colitis mice [4]; [8]): 1.0 ± 0.0
- thickness score (DSS-induced colitis mice [4]; [8]): 1.0 ± 0.0
- ulceration score (DSS-induced colitis mice [4]; [8]): 2.1 ± 0.1
- decrease in colonic damage score than the DSS-induced vehicle group (DSS-induced colitis mice [4]; Diacerein 30 mg/kg, not statistically significant): 6.8%
- diarrhea score vs DSS-induced vehicle group (in words) (DSS-induced colitis mice [4]; Diacerein 60 mg/kg): lower effect on diarrhea score than the DSS-induced vehicle group, but the observed effect was not statistically significant
- colonic damage score (DSS-induced colitis mice [4]; [9]): 3.8 ± 0.1
- thickness score (DSS-induced colitis mice [4]; [9]): 0.9 ± 0.0
- ulceration score (DSS-induced colitis mice [4]; [9]): 2.0 ± 0.0
- decrease in colonic damage score than the DSS-induced vehicle group (DSS-induced colitis mice [4]; Diacerein 60 mg/kg, significant, p<0.05): 13.6%
- loss of crypt and epithelium in HE-stained colon sections vs Vehicle group (DSS-induced colitis mice [2]; Diacerein treatment groups (30 and 60 mg/kg)): less loss of crypt and epithelium
- fecal blood score vs Vehicle group (in words) (DSS-induced colitis mice [3]; Diacerein 30 mg/kg, during the treatment): decreased slight fecal blood
- fecal blood score vs Vehicle group (in words) (DSS-induced colitis mice [3]; Diacerein 60 mg/kg, during the treatment): more significant reduction
- DAI (DSS-induced colitis mice [3]; Day 4 (vehicle 6.4)): ~5.1
- DAI (DSS-induced colitis mice [3]; Day 5 (vehicle 7.1)): ~6.3
- body weight score (DSS-induced colitis mice [3]; Diacerein treatment groups (30 and 60 mg/kg), Day 4, p<0.05 (vehicle 1.0)): 0.1-0.3
- body weight score (DSS-induced colitis mice [3]; Diacerein treatment groups (30 and 60 mg/kg), Day 5 (vehicle 1.1)): 0.6-0.9
- decrease in fecal blood score than the DSS-induced vehicle group (DSS-induced colitis mice [3]; both Diacerein groups (30 and 60 mg/kg), Day 5): 11.4%

SMILES: Nc1ccc(O)c(C(=O)O)c1 [Mesalazine, 5-Amino-2-hydroxybenzoic acid]
- colon weight vs DSS-induced vehicle group (in words) (DSS-induced colitis mice [1]; Mesalazine 20 mg/kg): significant improvement in colon weight
- Colon length (DSS-induced colitis mice [1]; [10]): 5.0 ± 0.2 cm
- Colon weight (DSS-induced colitis mice [1]; [10]): 202 ± 6 mg
- Colon length (DSS-induced colitis mice [1]; [11]): 5.3 ± 0.3 cm
- Colon weight (DSS-induced colitis mice [1]; [11]): 202 ± 8 mg
- colon weight vs DSS-induced vehicle group (in words) (DSS-induced colitis mice [1]; Mesalazine (60 mg/kg)): lower effect on colon weight than the DSS-induced vehicle group
- prevention of the body weight loss by DSS-induction (in words) (DSS-induced colitis mice [1]; Mesalazine (60 mg/kg)): able to prevent the body weight loss
- improvement in colon length than the DSS-induced vehicle group (DSS-induced colitis mice [1]; both Mesalazine groups (20 and 100 mg/kg PO QD), not statistically significant): 3-9%
- diarrhea score vs DSS-induced vehicle group (in words) (DSS-induced colitis mice [4]; Mesalazine 20 mg/kg): significant decrease in diarrhea score
- colonic damage score (DSS-induced colitis mice [4]; [10]): 3.5 ± 0.2
- thickness score (DSS-induced colitis mice [4]; [10]): 1.0 ± 0.0
- ulceration score (DSS-induced colitis mice [4]; [10]): 2.0 ± 0.0
- decrease in colonic damage score than the DSS-induced vehicle group (DSS-induced colitis mice [4]; Mesalazine 20 mg/kg, significant, p<0.05): 20.5%
- colonic damage score (DSS-induced colitis mice [4]; [11]): 4.0 ± 0.0
- diarrhea score (DSS-induced colitis mice [4]; [11]): 1.0 ± 0.0
- thickness score (DSS-induced colitis mice [4]; [11]): 1.0 ± 0.0
- ulceration score (DSS-induced colitis mice [4]; [11]): 2.0 ± 0.0
- decrease in colonic damage score than the DSS-induced vehicle group (DSS-induced colitis mice [4]; Mesalazine 100 mg/kg, not statistically significant): 9.1%
- loss of crypt and epithelium in HE-stained colon sections vs Vehicle group (DSS-induced colitis mice [2]; Mesalazine treatment alone (20 and 100 mg/kg)): No significant effect
- loss/damage of crypt and epithelium in colon sections vs DSS-induced vehicle group (DSS-induced colitis mice [2]): less loss of crypt and epithelium
- crypt and epithelium damages induced by DSS, microscopic examination of colon sections (DSS-induced colitis mice [2]; Mesalazine treatments (20 and 60 mg/kg)): clearly reduced
- fecal blood score vs Vehicle group (in words) (DSS-induced colitis mice [3]; Mesalazine 20 mg/kg, only at Day 1): significant reduction
- effect on DAI (in words) (DSS-induced colitis mice [3]; Mesalazine 20 mg/kg, throughout 5-day treatment): no effect
- fecal blood score vs Vehicle group (in words) (DSS-induced colitis mice [3]; Mesalazine 100 mg/kg, Day 1 to 3): significant reduction
- Diarrheal stool score vs Vehicle group (in words) (DSS-induced colitis mice [3]; [12]): significant reduction
- effect on DAI (in words) (DSS-induced colitis mice [3]; [12]): significant reduction
- effect on DAI (in words) (DSS-induced colitis mice [3]; Mesalazine 100 mg/kg, Day 4 or Day 5): no clear reduction in DAI
- DAI results (in words) (DSS-induced colitis mice [3]; Mesalazine (60 mg/kg)): effective
- body weight score (in words) (DSS-induced colitis mice [3]; Mesalazine (60 mg/kg)): significant effects on reducing the body weight score
- diarrheal stool score (in words) (DSS-induced colitis mice [3]; [13]): significantly decreased
- fecal blood score (in words) (DSS-induced colitis mice [3]; [13]): significantly decreased
- body weight score (DSS-induced colitis mice [3]; both Mesalazine groups (20 and 100 mg/kg), Day 4): 1.0-1.3
- body weight score (DSS-induced colitis mice [3]; [14]): 1.6-1.9
- decrease in fecal blood score than the DSS-induced vehicle group (DSS-induced colitis mice [3]; [14]): 11.4%

SMILES: O=C(O)c1cc(O)c2c(c1)C(=O)c1cccc(O)c1C2=O [Rhein, 4,5-Dihydroxyanthraquinone-2-carboxylic acid]
- colon weight vs DSS-induced vehicle group (in words) (DSS-induced colitis mice [1]; same protocol, dose not given): significant improvement in colon weight
- colon-to-body weight ratio vs DSS-induced vehicle group (in words) (DSS-induced colitis mice [1]; same protocol, dose not given): significant reduction in the colon-to-body weight ratio
- prevention of the body weight loss by DSS-induction (in words) (DSS-induced colitis mice [1]; same protocol, dose not given): able to prevent the body weight loss
- loss/damage of crypt and epithelium in colon sections vs DSS-induced vehicle group (DSS-induced colitis mice [2]): less loss of crypt and epithelium; also recorded: clearly reduced
- DAI results (in words) (DSS-induced colitis mice [3]; same protocol, dose not given): effective
- body weight score (in words) (DSS-induced colitis mice [3]; [5]): significant effects on reducing the body weight score
- diarrheal stool score (in words) (DSS-induced colitis mice [3]; [7]): significant effects on reducing the diarrheal stool score
